Common to all, as to experiment: NCI tumour cell line growth inhibition, 48 h
For test [1], the system named is BT-549.
The test system of test [2] is CAKI-1.
The test system of test [3] is DU-145.
Test [4] concerns HCT-116.
In test [5] the test system is Hs-578T.
The subject of test [6] is IGROV-1.
The test system of test [7] is LOX IMVI.
In test [8] the test system is MDA-MB-231.
The subject of test [9] is NCI-H23.
For test [10], the system named is NCI-H460.
In test [11] the test system is OVCAR-3.
Test [12] deals with OVCAR-4.
In test [13] the test system is PC-3.
The subject of test [14] is SF-295.
Test [15] concerns SK-MEL-5.
For test [16], the system named is SK-OV-3.
In test [17] the test system is SNB-19.
Test [18] relates to SR.
Test [19] deals with SW-620.
The test system of test [20] is UACC-62.

Data on seven compounds can be found in ChEMBL document CHEMBL1201862, “PubChem BioAssay data set” (2004).

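Cultured in 96-well plates, cells were exposed to test compound for 48 hours across five concentrations. The concentration for 50% growth inhibition is given as GI50.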 Activity calls are given as the source filed them. Rule as the data show it: active = GI50 up to about 1.1 µM and inactive = higher. A value given as a limit tells only on which side of the number the result lay.

Turning to `O=C(NCCc1ccccc1)c1cc(/C=C/c2cc(O)ccc2O)ccc1O`, the GI50 was 1.78 µM (inactive) in [1]; 2.94 µM (inactive) in test [2]; 8.59 µM (inactive) in [3]; 1.81 µM (inactive) in test [4]; 5.2 µM (inactive) in [5]; 3.03 µM (inactive) in test [6]. Moreover, the GI50 in test [7] is 4.17 µM (inactive); in test [8] it was 4.36 µM (inactive); in [9] it was 4.95 µM (inactive); in test [10], 9.44 µM (inactive); in [11], 2.67 µM (inactive); in test [12], 2.27 µM (inactive). Further, the GI50 is 3.56 µM (inactive) in test [13]; 15.9 µM (inactive) in test [14]; 2.74 µM (inactive) in [15]; 13 µM (inactive) in test [16]; 6.71 µM (inactive) in [17]; 3.01 µM (inactive) in test [18]. Moreover, the GI50 was 5.71 µM (inactive) in [19] and 2.03 µM (inactive) in test [20].
In the case of `Cc1cc2nc3[nH]c4c(Cl)cc(Cl)cc4c3nc2cc1C`, the GI50 in [1] is 98.4 µM (inactive); in test [2], > 100 µM (inactive); in test [3], 86.3 µM (inactive); in test [4] it was > 100 µM (inactive); in test [5], > 100 µM (inactive); in test [6] it was > 100 µM (inactive). For the same compound, the GI50 in test [7], in test [8], in test [9], in test [10], in [11] and in [12] was > 100 µM (inactive) each time. Also, the GI50 was > 100 µM (inactive) in test [13]; > 100 µM (inactive) in [14]; > 100 µM (inactive) in test [15]; > 100 µM (inactive) in [16]; > 100 µM (inactive) in test [17]; 96.8 µM (inactive) in test [18]. Besides, the GI50 was > 100 µM (inactive) in test [19] and 84.7 µM (inactive) in [20].
Regarding `COc1cc(/C=C\c2ccc(SC)cc2)cc(OC)c1OC`, the GI50 in test [1] was < 0.01 µM (active); in [2] it was 0.244 µM (active); in test [3], 0.043 µM (active); in test [4], < 0.0158 µM (active); in test [5] it was 0.0132 µM (active); in test [6], 0.0632 µM (active). Further, the GI50 in [7] is < 0.0262 µM (active); in [8], 0.0698 µM (active); in test [9] it was 0.0268 µM (active); in test [10], 0.0171 µM (active); in test [11] it was 0.0128 µM (active); in [12] it was 10.7 µM (inactive). Further, the GI50 in [13] was < 0.01 µM (active); in test [14], 0.0119 µM (active); in test [15] it was < 0.0152 µM (active); in [16] it was 0.0141 µM (active); in test [17], 0.0247 µM (active); in [18] it was < 0.01 µM (active). The GI50 in test [19] was < 0.01 µM (active); in test [20], 0.0227 µM (active).
With `COc1ccc(/C(=N/N=c2\[nH]c3ccccc3n2Cc2ccccc2)C(=O)O)cc1`, the GI50 in [1] was 25.1 µM (inactive); in test [2] it was 16.7 µM (inactive); in [3] it was 30.7 µM (inactive); in [4], 12.7 µM (inactive); in test [5], 31.7 µM (inactive); in test [6], 6.92 µM (inactive). Besides, the GI50 in test [7] was 6.89 µM (inactive); in [8], 23.3 µM (inactive); in [9], 14.1 µM (inactive); in [10], 4.8 µM (inactive); in test [11] it was 2.52 µM (inactive); in test [12] it was 7.76 µM (inactive). Further, the GI50 is 7.41 µM (inactive) in test [13]; 6.81 µM (inactive) in [14]; 15.5 µM (inactive) in test [15]; 13.7 µM (inactive) in [16]; 25.7 µM (inactive) in test [17]; 3.29 µM (inactive) in test [18]. Also, the GI50 in test [19] was 27 µM (inactive); in [20], 8.36 µM (inactive).
Turning to `COc1ccc(NC(=S)N/N=C(\c2ccccc2)c2ccccn2)cc1`, the GI50 in [1] was 4.94 µM (inactive); in test [2] it was 0.034 µM (active); in test [3] it was 0.568 µM (active); in test [4] it was < 0.01 µM (active); in test [5] it was 10.3 µM (inactive); in test [6] it was < 0.01 µM (active). Further, the GI50 in test [7] is < 0.0152 µM (active); in test [8] it was < 0.01 µM (active); in test [9], < 0.01 µM (active); in test [10], 0.0931 µM (active); in test [11], < 0.01 µM (active); in test [12], 0.7 µM (active). Further, the GI50 in [13] was < 0.01 µM (active); in [14] it was 0.121 µM (active); in test [15], 0.0432 µM (active); in test [16] it was 0.028 µM (active); in [17], 2.84 µM (inactive); in test [18] it was < 0.01 µM (active). The GI50 in test [19] is < 0.01 µM (active); in [20], 0.104 µM (active).
Consider `COc1ccc(C2(O)c3ccccc3C(=O)N(C)C2(O)c2ccc(OC)cc2)cc1` (stereo not given), for which the GI50 was 34.3 µM (inactive) in test [1]; 57.1 µM (inactive) in test [2]; > 100 µM (inactive) in [3]; 37.8 µM (inactive) in [4]; 0.396 µM (active) in test [5]; 28.6 µM (inactive) in test [6]. The GI50 was 30.1 µM (inactive) in test [7]; > 100 µM (inactive) in test [8]; > 100 µM (inactive) in [9]; 35.2 µM (inactive) in test [10]; 57 µM (inactive) in test [11]; 25.2 µM (inactive) in [12]. The GI50 in [13] was 33.9 µM (inactive); in test [14], 32.9 µM (inactive); in [15], 99.1 µM (inactive); in test [16], > 100 µM (inactive); in test [17], > 100 µM (inactive); in [18], 36.3 µM (inactive). For the same compound, the GI50 in [19] was 34.2 µM (inactive); in test [20] it was 48.1 µM (inactive).
For the compound `Fc1ccccc1-c1cc(S)c2cc3c(cc2n1)OCO3`, the GI50 in test [1] is 61 µM (inactive); in test [2], 9.93 µM (inactive); in test [3] it was 13 µM (inactive); in test [4], 7.08 µM (inactive); in test [5], 5.24 µM (inactive); in [6] it was 7.93 µM (inactive). Further, the GI50 was 10.9 µM (inactive) in [7]; > 56.1 µM (inactive) in test [8]; 9.55 µM (inactive) in test [9]; 4.57 µM (inactive) in test [10]; 10.9 µM (inactive) in [11]; > 100 µM (inactive) in test [12]. The GI50 was 6.08 µM (inactive) in [13]; 7.91 µM (inactive) in [14]; 3.63 µM (inactive) in [15]; 16.1 µM (inactive) in test [16]; 15.2 µM (inactive) in test [17]; 4.34 µM (inactive) in test [18]. Also, the GI50 in test [19] was 5.85 µM (inactive); in [20], 3.71 µM (inactive).
